Source: ChEMBL document CHEMBL4373693, “Virtual Screening Approach and Investigation of Structure-Activity Relationships To Discover Novel Bacterial Topoisomerase Inhibitors Targeting Gram-Positive and Gram-Negative Pathogens” (J Med Chem, 2019)
pIC50: −log10 of the molar value. In brackets after ≈: the same amount, converted by molar mass.

What was measured:
DNA gyrase [1] = target: DNA gyrase (Escherichia coli, UniProt P0AES4+P0AES6); test: Inhibition of Escherichia coli DNA gyrase; assay type: protein-complex assay
DNA gyrase [2] = target: DNA gyrase (Staphylococcus aureus, UniProt P0A0K8+P20831); test: Inhibition of Staphylococcus aureus DNA gyrase; assay type: protein-complex assay
Sequence of DNA gyrase (Staphylococcus aureus, UniProt P0A0K8+P20831) (P0A0K8 whole entry): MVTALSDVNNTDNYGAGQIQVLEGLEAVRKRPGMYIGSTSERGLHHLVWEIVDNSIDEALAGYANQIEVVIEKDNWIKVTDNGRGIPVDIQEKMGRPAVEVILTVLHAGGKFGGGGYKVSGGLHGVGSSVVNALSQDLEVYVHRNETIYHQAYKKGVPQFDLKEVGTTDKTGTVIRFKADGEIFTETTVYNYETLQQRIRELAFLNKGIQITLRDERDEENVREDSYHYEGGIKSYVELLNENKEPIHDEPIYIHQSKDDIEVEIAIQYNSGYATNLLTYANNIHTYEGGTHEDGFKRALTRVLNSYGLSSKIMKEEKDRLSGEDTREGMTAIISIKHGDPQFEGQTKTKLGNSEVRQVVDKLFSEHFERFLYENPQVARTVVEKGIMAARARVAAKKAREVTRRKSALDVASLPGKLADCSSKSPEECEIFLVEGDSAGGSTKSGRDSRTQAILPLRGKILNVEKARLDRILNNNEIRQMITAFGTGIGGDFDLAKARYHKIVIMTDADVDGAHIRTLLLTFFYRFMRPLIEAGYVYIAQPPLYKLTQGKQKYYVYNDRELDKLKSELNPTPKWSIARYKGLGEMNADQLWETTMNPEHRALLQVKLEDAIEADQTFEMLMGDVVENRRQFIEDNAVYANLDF
Sequence of DNA gyrase (Staphylococcus aureus, UniProt P0A0K8+P20831) (P20831 whole entry): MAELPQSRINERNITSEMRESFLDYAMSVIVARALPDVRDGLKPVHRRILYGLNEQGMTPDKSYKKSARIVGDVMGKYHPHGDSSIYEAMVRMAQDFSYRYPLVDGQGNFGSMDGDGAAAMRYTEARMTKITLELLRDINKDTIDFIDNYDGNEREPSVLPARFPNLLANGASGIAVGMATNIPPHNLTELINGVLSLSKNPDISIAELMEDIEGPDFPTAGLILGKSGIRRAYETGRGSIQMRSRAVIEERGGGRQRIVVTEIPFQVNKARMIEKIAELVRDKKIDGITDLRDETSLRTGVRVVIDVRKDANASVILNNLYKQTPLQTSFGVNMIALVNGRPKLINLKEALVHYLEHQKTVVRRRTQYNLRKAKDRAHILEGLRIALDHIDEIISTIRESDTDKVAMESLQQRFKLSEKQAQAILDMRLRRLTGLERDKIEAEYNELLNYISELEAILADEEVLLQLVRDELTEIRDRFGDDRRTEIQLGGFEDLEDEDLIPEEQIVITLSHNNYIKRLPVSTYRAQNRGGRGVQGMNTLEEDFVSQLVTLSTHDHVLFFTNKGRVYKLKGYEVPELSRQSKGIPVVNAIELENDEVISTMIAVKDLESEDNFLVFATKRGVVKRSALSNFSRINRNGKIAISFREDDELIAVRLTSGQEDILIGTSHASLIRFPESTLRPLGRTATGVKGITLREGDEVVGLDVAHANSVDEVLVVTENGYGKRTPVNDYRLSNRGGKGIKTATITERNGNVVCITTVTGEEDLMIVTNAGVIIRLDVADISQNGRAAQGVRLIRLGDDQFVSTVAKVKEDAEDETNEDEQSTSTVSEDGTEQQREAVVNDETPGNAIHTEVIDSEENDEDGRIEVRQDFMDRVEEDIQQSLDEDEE

Escherichia coli = test: Antibacterial activity against Escherichia coli; assay type: functional
DNA gyrase subunit A [3] = target: DNA gyrase subunit A (Escherichia coli K-12, UniProt P0AES4); test: Inhibition of Escherichia coli DNA gyrase A assessed as reduction in enzyme-mediated supercoiling of relaxed pBR322 DNA measured after 60 mins by electrophoresis method
DNA gyrase subunit A [4] = target: DNA gyrase subunit A (Staphylococcus aureus, UniProt P20831); test: Inhibition of Staphylococcus aureus DNA gyrase A assessed as reduction in enzyme-mediated supercoiling of relaxed pBR322 DNA measured after 60 mins by electrophoresis method
Sequence of DNA gyrase subunit A (Staphylococcus aureus, UniProt P20831) (P20831 whole entry): as above

[5] = target: T1, DNA topoisomerase 4 subunit A (Escherichia coli K-12, UniProt P0AFI2); test: Inhibition of Escherichia coli DNA topoisomerase 4 subunit ParC assessed as reduction in decatenation of kinetoplast DNA incubated for 60 mins by ethidium bromide staining based gel electrophoresis method
T1 sequence (P0AFI2 whole entry): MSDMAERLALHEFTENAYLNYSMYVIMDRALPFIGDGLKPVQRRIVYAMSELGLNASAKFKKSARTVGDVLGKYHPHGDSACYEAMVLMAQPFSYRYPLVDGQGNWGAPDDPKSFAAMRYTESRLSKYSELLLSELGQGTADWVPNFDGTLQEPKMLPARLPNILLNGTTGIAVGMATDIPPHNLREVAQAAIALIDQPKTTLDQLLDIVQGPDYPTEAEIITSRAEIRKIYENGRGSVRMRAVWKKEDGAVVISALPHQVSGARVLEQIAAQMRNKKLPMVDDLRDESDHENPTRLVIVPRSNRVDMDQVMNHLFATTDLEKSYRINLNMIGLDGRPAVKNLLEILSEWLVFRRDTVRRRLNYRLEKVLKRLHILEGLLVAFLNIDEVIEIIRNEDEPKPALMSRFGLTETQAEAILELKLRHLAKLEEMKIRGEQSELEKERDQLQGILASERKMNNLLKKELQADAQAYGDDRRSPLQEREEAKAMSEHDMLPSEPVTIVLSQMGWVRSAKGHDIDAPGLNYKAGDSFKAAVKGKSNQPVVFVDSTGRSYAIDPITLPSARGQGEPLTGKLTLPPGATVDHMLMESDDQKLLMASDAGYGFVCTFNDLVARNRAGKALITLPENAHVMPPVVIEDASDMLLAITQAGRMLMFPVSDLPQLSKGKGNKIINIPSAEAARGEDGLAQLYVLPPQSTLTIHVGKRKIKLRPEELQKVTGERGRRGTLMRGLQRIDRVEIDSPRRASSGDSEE

[6] = target: DNA topoisomerase 4 subunit A (Staphylococcus aureus, UniProt P0C1U9); test: Inhibition of Staphylococcus aureus DNA topoisomerase 4 subunit ParC assessed as reduction in decatenation of kinetoplast DNA incubated for 60 mins by ethidium bromide staining based gel electrophoresis method
Sequence of DNA topoisomerase 4 subunit A (Staphylococcus aureus, UniProt P0C1U9) (P0C1U9 whole entry): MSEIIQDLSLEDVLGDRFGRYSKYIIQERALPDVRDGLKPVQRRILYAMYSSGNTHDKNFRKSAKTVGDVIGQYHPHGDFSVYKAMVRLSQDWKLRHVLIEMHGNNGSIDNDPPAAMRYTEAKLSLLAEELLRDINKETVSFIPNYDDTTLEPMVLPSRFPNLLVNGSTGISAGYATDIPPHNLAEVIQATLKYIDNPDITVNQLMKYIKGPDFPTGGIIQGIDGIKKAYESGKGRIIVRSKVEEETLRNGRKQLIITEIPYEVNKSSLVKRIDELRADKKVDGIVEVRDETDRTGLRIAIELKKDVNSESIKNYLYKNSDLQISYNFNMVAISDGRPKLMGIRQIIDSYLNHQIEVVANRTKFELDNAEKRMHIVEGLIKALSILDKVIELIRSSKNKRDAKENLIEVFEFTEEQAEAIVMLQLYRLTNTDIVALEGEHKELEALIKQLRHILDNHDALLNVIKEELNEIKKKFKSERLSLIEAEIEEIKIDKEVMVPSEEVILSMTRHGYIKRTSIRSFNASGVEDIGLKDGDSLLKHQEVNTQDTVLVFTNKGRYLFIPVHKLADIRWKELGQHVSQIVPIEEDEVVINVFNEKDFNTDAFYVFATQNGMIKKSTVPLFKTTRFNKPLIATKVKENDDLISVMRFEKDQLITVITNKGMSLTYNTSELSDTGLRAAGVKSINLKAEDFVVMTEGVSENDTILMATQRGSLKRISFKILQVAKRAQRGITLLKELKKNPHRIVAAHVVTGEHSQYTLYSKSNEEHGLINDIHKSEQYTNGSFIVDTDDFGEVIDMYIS

[7] = Inhibition of Escherichia coli DNA topoisomerase 4
Topoisomerase IV = Topoisomerase IV (Staphylococcus aureus, UniProt P0C1S7+P0C1U9); test: Inhibition of Staphylococcus aureus DNA topoisomerase 4; assay type: protein-complex assay
Sequence of Topoisomerase IV (P0C1U9 whole entry): as above
Sequence of Topoisomerase IV (P0C1S7 whole entry): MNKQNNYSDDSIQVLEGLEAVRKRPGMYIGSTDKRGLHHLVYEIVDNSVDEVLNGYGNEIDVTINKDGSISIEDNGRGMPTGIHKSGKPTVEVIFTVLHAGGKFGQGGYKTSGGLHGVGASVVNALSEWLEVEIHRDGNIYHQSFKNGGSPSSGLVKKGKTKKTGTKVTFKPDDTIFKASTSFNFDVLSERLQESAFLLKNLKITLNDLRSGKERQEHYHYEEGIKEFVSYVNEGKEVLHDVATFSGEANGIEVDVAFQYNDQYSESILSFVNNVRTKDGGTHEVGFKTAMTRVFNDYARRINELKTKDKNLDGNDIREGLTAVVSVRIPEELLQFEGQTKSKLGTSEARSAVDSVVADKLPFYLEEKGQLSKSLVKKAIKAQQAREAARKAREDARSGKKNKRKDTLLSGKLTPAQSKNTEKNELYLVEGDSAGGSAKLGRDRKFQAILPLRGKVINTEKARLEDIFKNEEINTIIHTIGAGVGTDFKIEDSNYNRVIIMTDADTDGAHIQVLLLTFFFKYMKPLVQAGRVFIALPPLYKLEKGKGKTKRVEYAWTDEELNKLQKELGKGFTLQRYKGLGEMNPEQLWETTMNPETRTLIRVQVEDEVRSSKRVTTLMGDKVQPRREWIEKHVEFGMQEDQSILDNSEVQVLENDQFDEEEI

Staphylococcus aureus = test: Antibacterial activity against Staphylococcus aureus; assay type: functional

In the case of `COc1ccc2ncc(C#N)c(CCN3CCC(NCc4cc5c(cn4)OCS5)CC3)c2c1`, the pIC50 (DNA gyrase [1]) was 7.00, the pIC50 (DNA gyrase [2]) was 7.85 and the MIC (Escherichia coli) was 0.06 mg/L (≈ 0.13 µM).
`COc1ccc2ncc(F)c([C@@H](O)CC[C@@H]3CCN(CCSc4cccs4)C[C@@H]3C(=O)O)c2c1` gave a pIC50 (DNA gyrase subunit A [3]) of 4.96, a pIC50 (DNA gyrase subunit A [4]) of 6.00 and a pIC50 [5] of 5.66. The pIC50 [6] was 4.74.
`O=C1COc2ccc(N3C[C@H](CCCN[C@@H]4Cn5c(=O)ccc6ccc(F)c4c65)OC3=O)nc2N1` gave a pIC50 (DNA gyrase [1]) of 6.90, a pIC50 (DNA gyrase [2]) of 8.10 and a pIC50 [7] of 7.52. For the same compound, the pIC50 (Topoisomerase IV) was 5.70, the MIC90 (Staphylococcus aureus) was 0.016 mg/L (≈ 0.0334 µM) and the MIC90 (Escherichia coli) was 0.5 mg/L (≈ 1.04 µM).
In the case of `COc1ccc2c3conc3c(=O)n(CCN3CCC(NCc4ccc5c(n4)NC(=O)CO5)CC3)c2c1`, the pIC50 (DNA gyrase [1]) was 5.78, the pIC50 [7] was 6.85 and the MIC (Staphylococcus aureus) was 0.12 mg/L (≈ 0.238 µM). It also gave an MIC (Escherichia coli) of 0.12 mg/L (≈ 0.238 µM).
